Source: patent US20140275539A1, “STABILIZATION OF RADIOIODINATED AND ASTATINATED PHARMACEUTICALS AND IMAGING AGENTS” (priority 2013, published 2014)

Legend:
[1] = DFT calculation of C—I bond dissociation energy (B3LYP/6-31G(d,p)/MIDI!, Gaussian 03); conditions: estimated from the DFT data, compound not covered by the calculations
Experimental: Density Functional Theory (DFT) calculations performed on a variety of model structures strongly support the novelty and uniqueness of this approach. […] Calculations were performed with the Gaussian 03 suite of programs.
Table 2 summarizes results of density functional theory calculations (B3LYP/6-31G(d,p)/MIDI!, thermal and zero point energy corrected) for compounds 1, 7, and 8, showing the dissimilar impact of ortho-chlorine substitution on the strength of the C—I bond. […] Chlorine substitution results in significant C—I bond weakening compared to iodobenzene.
Table 3 depicts the results of density functional theory calculations for compounds 1, 5, and 9-14 (B3LYP/SDD for astatobenzenes, B3LYP/6-31G(d,p)/MIDI! for the iodobenzenes, and B3LYP/6-31G(d,p) for 11-14; thermal and zero point energy corrected) showing how the effect of ortho fluorine substitution falls off as the bond strength of the C—X (where X=halogen) bond increases.
Table 4 depicts results of DFT calculations (B3LYP/6-31G(d,p)/MIDI! for compounds 15-22; thermal and zero point energy corrected) showing how the effect of ortho fluorine applies to heterocyclic systems.
Table 5 depicts results of density functional theory calculations (B3LYP/6-31G(d,p)/MIDI!; thermal and zero point energy corrected) for compounds 23-34, showing how the effect of ortho fluorine substituents applies to five-membered ring heterocycles. […]

[2] = more cytotoxic than ^123I-MIBG; cited from earlier work

Compound	C—I bond energy increase over the derivative in which the fluorine substituents are replaced by hydrogen atoms [1]	cytotoxicity relative to ^123I-MIBG [2]
N[C@@H](Cc1cc(I)c(Oc2ccc(F)c(I)c2F)c(I)c1)C(=O)O	approximately 2.5 kcal/mol	–
N=C(N)NCc1cccc([211At])c1 [^211At-MIBG]	–	approximately 1000 times
